What was measured:
Assay type in all cases: in vivo
Kochia (Kochia scoparia) [1] = assay: Test A preemergence; conditions: for Plant response rating, Kochia: 125 g ai/ha, preemergence, 0 to 100 scale (0 no effect, 100 complete control); for Kochia plant response rating (0 to 100 scale): 0 is no effect, 100 is complete control
In short: (§1)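 Each rating is a visual injury score from 0 to 100 given about 10 d after treatment, judged against untreated controls kept alongside in the greenhouse. In loam soil–sand blend, seeds got a preemergence directed soil spray, while postemergence plants were 2 to 10 cm tall at spraying.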

[2] = system: barnyardgrass (Echinochloa crus-galli); assay: Test A preemergence; conditions: for Plant response rating, Barnyardgrass: 125 g ai/ha, preemergence, 0 to 100 scale (0 no effect, 100 complete control); for Barnyardgrass plant response rating (0 to 100 scale): 0 is no effect, 100 is complete control
In short: as §1

[3] = system: giant foxtail (Setaria faberii); assay: Test A preemergence; conditions: for Plant response rating, Foxtail, Giant: 125 g ai/ha, preemergence, 0 to 100 scale (0 no effect, 100 complete control); for Foxtail, Giant plant response rating (0 to 100 scale): 0 is no effect, 100 is complete control
In short: as §1

[4] = system: pigweed (Amaranthus retroflexus); assay: Test A preemergence; conditions: for Plant response rating, Pigweed: 125 g ai/ha, preemergence, 0 to 100 scale (0 no effect, 100 complete control); for Pigweed plant response rating (0 to 100 scale): 0 is no effect, 100 is complete control
[5] = system: ragweed (common ragweed, Ambrosia elatior); assay: Test A preemergence; conditions: for Plant response rating, Ragweed: 125 g ai/ha, preemergence, 0 to 100 scale (0 no effect, 100 complete control); for Ragweed plant response rating (0 to 100 scale): 0 is no effect, 100 is complete control
In short: as §1

[6] = system: ryegrass, Italian (Italian ryegrass, Lolium multiflorum); assay: Test A preemergence; conditions: for Plant response rating, Ryegrass, Italian: 125 g ai/ha, preemergence, 0 to 100 scale (0 no effect, 100 complete control); for Ryegrass, Italian plant response rating (0 to 100 scale): 0 is no effect, 100 is complete control
In short: as §1

[7] = system: Galium (catchweed bedstraw, Galium aparine); assay: Test A postemergence
In short: as §1

Kochia (Kochia scoparia) [8] = assay: Test A postemergence
In short: as §1

[9] = system: barnyardgrass (Echinochloa crus-galli); assay: Test A postemergence
In short: as §1

[10] = system: blackgrass (Alopecurus myosuroides); assay: Test A postemergence
In short: as §1

corn (Zea mays) = assay: Test A postemergence
In short: as §1

[11] = system: giant foxtail (Setaria faberii); assay: Test A postemergence
In short: as §1

[12] = system: pigweed (Amaranthus retroflexus); assay: Test A postemergence
In short: as §1

[13] = system: ragweed (common ragweed, Ambrosia elatior); assay: Test A postemergence
In short: as §1

[14] = system: ryegrass, Italian (Italian ryegrass, Lolium multiflorum); assay: Test A postemergence
In short: as §1

[15] = system: wheat (Triticum aestivum); assay: Test A postemergence
In short: as §1

[16] = system: barnyardgrass (Echinochloa crus-galli); assay: Test B flooded paddy test; conditions: Flood, 250 g ai/ha; 0 to 100 scale where 0 is no effect and 100 is complete control; 13 to 15 d
In short: (§2)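 Percent control, visually estimated after 13–15 d in the greenhouse on a 0–100 basis, compares treated pots with untreated ones; compound was put into paddy water 3 cm above the soil when plants had two leaves.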

[17] = system: ducksalad (Heteranthera limosa); assay: Test B flooded paddy test; conditions: Flood, 250 g ai/ha; 0 to 100 scale where 0 is no effect and 100 is complete control; 13 to 15 d
In short: as §2

rice (Oryra sativa) = assay: Test B flooded paddy test; conditions: Flood, 250 g ai/ha; 0 to 100 scale where 0 is no effect and 100 is complete control; 13 to 15 d
In short: as §2

[18] = system: sedge, umbrella (small-flower umbrella sedge, Cyperus difformis); assay: Test B flooded paddy test; conditions: Flood, 250 g ai/ha; 0 to 100 scale where 0 is no effect and 100 is complete control; 13 to 15 d
In short: as §2

[19] = 500 g ai/ha, postemergence, 0 to 100 scale, 0 no effect, 100 complete control
[20] = Postemergence, 125 g ai/ha, visual injury, 0 to 100 scale (0 no effect, 100 complete control), approx. 10 d
[21] = Preemergence, 500 g ai/ha, visual injury approx. 10 d
[22] = 125 g ai/ha, postemergence, visual injury rating on 0 to 100 scale (0 no effect, 100 complete control), approx. 10 d

In the case of `Cc1ccc(C2CNC(=O)C2C(=O)Nc2ccccc2F)cc1F` (racemic) [Compound 368], the “Plant response rating, Kochia” value (Kochia (Kochia scoparia) [1]) is reported as 0, the “Kochia plant response rating (0 to 100 scale)” value (Kochia (Kochia scoparia) [1]; Preemergence, 500 g ai/ha) is reported as 30 and the “Plant response rating, Barnyardgrass” value [2] is reported as 90. For the same compound, the “Barnyardgrass plant response rating (0 to 100 scale)” value ([2]; Preemergence, 500 g ai/ha) was 90, the “Plant response rating, Foxtail, Giant” value [3] was 90 and the “Foxtail, Giant plant response rating (0 to 100 scale)” value ([3]; Preemergence, 500 g ai/ha) was 90. The “Plant response rating, Pigweed” value [4] was 0, the “Pigweed plant response rating (0 to 100 scale)” value ([4]; Preemergence, 500 g ai/ha) was 0 and the “Plant response rating, Ragweed” value [5] was 30. For the same compound, the “Ragweed plant response rating (0 to 100 scale)” value ([5]; Preemergence, 500 g ai/ha) was 60, the “Plant response rating, Ryegrass, Italian” value [6] was 0 and the “Ryegrass, Italian plant response rating (0 to 100 scale)” value ([6]; Preemergence, 500 g ai/ha) was 30. For the same compound, the “Plant response rating, Galium” value [7, 19] was 50, the “Plant response rating, Galium” value [7, 20] was 30 and the “Plant response rating, Kochia” value (Kochia (Kochia scoparia) [8]; [19]) was 0. For the same compound, the “Plant response rating, Kochia” value (Kochia (Kochia scoparia) [8]; [20]) was 0, the “Plant response rating, Barnyardgrass” value [9, 19] was 90 and the “Plant response rating, Barnyardgrass” value [9, 20] was 90. The “Plant response rating, Blackgrass” value [10, 19] was 60, the “Plant response rating, Blackgrass” value [10, 20] was 0 and the “Plant response rating, Corn” value (corn (Zea mays); [19]) was 20. For the same compound, the “Plant response rating, Corn” value (corn (Zea mays); [20]) was 0, the “Plant response rating, Foxtail, Giant” value [11, 19] was 80 and the “Plant response rating, Foxtail, Giant” value [11, 20] was 20. The “Plant response rating, Pigweed” value [12, 19] was 0, the “Plant response rating, Pigweed” value [12, 20] was 0 and the “Plant response rating, Ragweed” value [13, 19] was 30. The “Plant response rating, Ragweed” value [13, 20] was 0, the “Plant response rating, Ryegrass, Italian” value [14, 19] was 50 and the “Plant response rating, Ryegrass, Italian” value [14, 20] was 20. For the same compound, the “Plant response rating, Wheat” value [15, 19] was 30, the “Plant response rating, Wheat” value [15, 20] was 0 and the “Plant response rating, Barnyardgrass” value [16] was 55. For the same compound, the “Plant response rating, Ducksalad” value [17] was 100, the “Plant response rating, Rice” value (rice (Oryra sativa)) was 15 and the “Plant response rating, Sedge, Umbrella” value [18] was 0.
For `O=C1NCC(c2ccc(Br)cc2)C1C(=O)Nc1ccc(F)cc1F` (stereo not drawn) [Compound 447], the “Plant response rating, Kochia” value (Kochia (Kochia scoparia) [1]) was 50, the “Kochia plant response rating (0 to 100 scale, 0 is no effect, 100 is complete control)” value (Kochia (Kochia scoparia) [1]; [21]) was 50 and the “Plant response rating, Barnyardgrass” value [2] was 70. The “Barnyardgrass plant response rating (0 to 100 scale, 0 is no effect, 100 is complete control)” value [2, 21] was 90, the “Plant response rating, Foxtail, Giant” value [3] was 90 and the “Foxtail, Giant plant response rating (0 to 100 scale, 0 is no effect, 100 is complete control)” value [3, 21] was 90. The “Plant response rating, Pigweed” value [4] was 30, the “Pigweed plant response rating (0 to 100 scale, 0 is no effect, 100 is complete control)” value [4, 21] was 30 and the “Plant response rating, Ragweed” value [5] was 0. The “Ragweed plant response rating (0 to 100 scale, 0 is no effect, 100 is complete control)” value [5, 21] was 0, the “Plant response rating, Ryegrass, Italian” value [6] was 20 and the “Ryegrass, Italian plant response rating (0 to 100 scale, 0 is no effect, 100 is complete control)” value [6, 21] was 30. For the same compound, the “Galium plant response rating” value [7, 22] was 40, the “Plant response rating, Galium” value [7, 19] was 50 and the “Kochia plant response rating” value (Kochia (Kochia scoparia) [8]; [22]) was 0. The “Plant response rating, Kochia” value (Kochia (Kochia scoparia) [8]; [19]) was 40, the “Barnyardgrass plant response rating” value [9, 22] was 80 and the “Plant response rating, Barnyardgrass” value [9, 19] was 80. The “Blackgrass plant response rating” value [10, 22] was 0, the “Plant response rating, Blackgrass” value [10, 19] was 30 and the “Corn plant response rating” value (corn (Zea mays); [22]) was 0. The “Plant response rating, Corn” value (corn (Zea mays); [19]) was 0, the “Foxtail, Giant plant response rating” value [11, 22] was 80 and the “Plant response rating, Foxtail, Giant” value [11, 19] was 80. For the same compound, the “Pigweed plant response rating” value [12, 22] was 0, the “Plant response rating, Pigweed” value [12, 19] was 30 and the “Ragweed plant response rating” value [13, 22] was 0. The “Plant response rating, Ragweed” value [13, 19] was 0, the “Ryegrass, Italian plant response rating” value [14, 22] was 0 and the “Plant response rating, Ryegrass, Italian” value [14, 19] was 20. The “Wheat plant response rating” value [15, 22] was 0, the “Plant response rating, Wheat” value [15, 19] was 0 and the “Plant response rating, Barnyardgrass” value [16] was 40. For the same compound, the “Plant response rating, Ducksalad” value [17] was 98, the “Plant response rating, Rice” value (rice (Oryra sativa)) was 0 and the “Plant response rating, Sedge, Umbrella” value [18] was 0.
For `Cc1ccc(C2CNC(=O)C2C(=O)Nc2ccc(F)c(F)c2F)cc1F` (racemic) [Compound 371], the “Plant response rating, Kochia” value (Kochia (Kochia scoparia) [1]) was 20, the “Kochia plant response rating (0 to 100 scale)” value (Kochia (Kochia scoparia) [1]; Preemergence, 500 g ai/ha) was 60 and the “Plant response rating, Barnyardgrass” value [2] was 90. The “Barnyardgrass plant response rating (0 to 100 scale)” value ([2]; Preemergence, 500 g ai/ha) was 90, the “Plant response rating, Foxtail, Giant” value [3] was 90 and the “Foxtail, Giant plant response rating (0 to 100 scale)” value ([3]; Preemergence, 500 g ai/ha) was 90. For the same compound, the “Plant response rating, Pigweed” value [4] was 0, the “Pigweed plant response rating (0 to 100 scale)” value ([4]; Preemergence, 500 g ai/ha) was 20 and the “Plant response rating, Ragweed” value [5] was 30. For the same compound, the “Ragweed plant response rating (0 to 100 scale)” value ([5]; Preemergence, 500 g ai/ha) was 40, the “Plant response rating, Ryegrass, Italian” value [6] was 0 and the “Ryegrass, Italian plant response rating (0 to 100 scale)” value ([6]; Preemergence, 500 g ai/ha) was 20. For the same compound, the “Plant response rating, Galium” value [7, 19] was 30, the “Plant response rating, Galium” value [7, 20] was 30 and the “Plant response rating, Kochia” value (Kochia (Kochia scoparia) [8]; [19]) was 40. The “Plant response rating, Kochia” value (Kochia (Kochia scoparia) [8]; [20]) was 20, the “Plant response rating, Barnyardgrass” value [9, 19] was 90 and the “Plant response rating, Barnyardgrass” value [9, 20] was 80. The “Plant response rating, Blackgrass” value [10, 19] was 60, the “Plant response rating, Blackgrass” value [10, 20] was 30 and the “Plant response rating, Corn” value (corn (Zea mays); [19]) was 60. The “Plant response rating, Corn” value (corn (Zea mays); [20]) was 20, the “Plant response rating, Foxtail, Giant” value [11, 19] was 90 and the “Plant response rating, Foxtail, Giant” value [11, 20] was 50. The “Plant response rating, Pigweed” value [12, 19] was 20, the “Plant response rating, Pigweed” value [12, 20] was 0 and the “Plant response rating, Ragweed” value [13, 19] was 30. The “Plant response rating, Ragweed” value [13, 20] was 0, the “Plant response rating, Ryegrass, Italian” value [14, 19] was 30 and the “Plant response rating, Ryegrass, Italian” value [14, 20] was 20. The “Plant response rating, Wheat” value [15, 19] was 40, the “Plant response rating, Wheat” value [15, 20] was 0 and the “Plant response rating, Barnyardgrass” value [16] was 60. For the same compound, the “Plant response rating, Ducksalad” value [17] was 100, the “Plant response rating, Rice” value (rice (Oryra sativa)) was 20 and the “Plant response rating, Sedge, Umbrella” value [18] was 0.
